Data: ChEMBL document CHEMBL4052638, “Multitarget trehalose-carnosine conjugates inhibit Aβ aggregation, tune copper(II) activity and decrease acrolein toxicity” (Eur J Med Chem, 2017)
Active and inactive are the calls of the source. No cut-off for these calls is given here.

Assays:
[1] = Inhibition of cupric ion-mediated amyloid beta (1 to 40) aggregation at 20 mM at pH 6.6 after 3 hrs by light scattering assay
[2] = target: Amyloid-beta precursor protein (Homo sapiens) (UniProt P05067); assay: Inhibition of amyloid beta (1 to 42) (unknown origin) self induced aggregation assessed as Tlag at 40 to 5000 uM in presence of trehalose by ThT-based fluorometric method (reference value: 8.3 +/- 0.7 hrs)
Amyloid-beta precursor protein (Homo sapiens), sequence (P05067 whole entry): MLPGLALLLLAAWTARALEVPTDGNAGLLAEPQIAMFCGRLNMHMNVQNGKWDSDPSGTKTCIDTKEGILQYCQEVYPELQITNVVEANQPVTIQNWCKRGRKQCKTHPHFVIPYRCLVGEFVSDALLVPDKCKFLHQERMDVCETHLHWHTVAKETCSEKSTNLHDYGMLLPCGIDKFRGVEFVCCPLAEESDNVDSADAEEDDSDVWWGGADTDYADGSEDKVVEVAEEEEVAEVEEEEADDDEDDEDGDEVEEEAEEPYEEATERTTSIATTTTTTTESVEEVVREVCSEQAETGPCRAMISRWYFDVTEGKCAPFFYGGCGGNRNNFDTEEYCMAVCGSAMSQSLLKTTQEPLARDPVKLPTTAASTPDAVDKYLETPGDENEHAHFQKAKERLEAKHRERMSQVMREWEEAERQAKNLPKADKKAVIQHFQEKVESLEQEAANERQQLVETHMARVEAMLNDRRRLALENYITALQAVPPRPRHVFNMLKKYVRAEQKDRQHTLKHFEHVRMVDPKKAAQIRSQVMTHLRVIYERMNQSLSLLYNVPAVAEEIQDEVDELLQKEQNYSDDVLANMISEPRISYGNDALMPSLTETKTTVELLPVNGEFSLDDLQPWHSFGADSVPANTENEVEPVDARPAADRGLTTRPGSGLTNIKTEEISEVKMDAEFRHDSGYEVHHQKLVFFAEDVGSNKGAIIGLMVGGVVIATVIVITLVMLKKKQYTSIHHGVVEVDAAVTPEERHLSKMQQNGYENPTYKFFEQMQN

[3] = target: Amyloid-beta precursor protein (Homo sapiens) (UniProt P05067); assay: Inhibition of amyloid beta (1 to 42) (unknown origin) self induced aggregation assessed as difference between final and initial fluorescence emission at 40 to 5000 uM […] by ThT-based fluorometric method (reference value: 52 +/- 7 a.u.)
[4] = target: Amyloid-beta precursor protein (Homo sapiens) (UniProt P05067); assay: Inhibition of amyloid beta (1 to 42) (unknown origin) self induced aggregation assessed as fluorescence emission rate constant K at 40 to 5000 uM […] in presence of trehalose by ThT-based fluorometric method (reference value: 1.3 +/- 0.1)
[5] = target: Amyloid-beta precursor protein (Homo sapiens) (UniProt P05067); assay: Inhibition of amyloid beta (1 to 42) (unknown origin) self induced aggregation […] by ThT-based fluorometric method
[6] = target: Amyloid-beta precursor protein (Homo sapiens) (UniProt P05067); assay: Inhibition of amyloid beta (1 to 42) (unknown origin) self induced aggregation assessed as reduction in flat ribbons formation at 500 uM after 30 hrs by atomic force microscopic analysis
[7] = target: Amyloid-beta precursor protein (Homo sapiens) (UniProt P05067); assay: Inhibition of amyloid beta (1 to 42) (unknown origin) self induced aggregation assessed as time at which amplitude of ThT emission is 50% of difference between final and initial fluorescence emission at 40 to 5000 uM in presence of trehalose by ThT-based fluorometric method (reference value: 11 +/- 1 hrs)
[8] = target: Amyloid-beta precursor protein (Homo sapiens) (UniProt P05067); assay: Inhibition of amyloid beta (1 to 42) (unknown origin) self induced aggregation assessed as lag time at 40 to 5000 uM […] by ThT-based fluorometric method (reference value: 8.3 +/- 0.7 hrs)
[9] = target: Amyloid-beta precursor protein (Homo sapiens) (UniProt P05067); assay: Inhibition of amyloid beta (1 to 42) (unknown origin) self induced aggregation assessed as fluorescence emission rate constant K at 40 to 5000 uM […] by ThT-based fluorometric method (reference value: 1.3 +/- 0.1)
[10] = target: Amyloid-beta precursor protein (Homo sapiens) (UniProt P05067); assay: Inhibition of amyloid beta (1 to 42) (unknown origin) self induced aggregation assessed as difference between final and initial fluorescence emission at 40 to 5000 uM […] in presence of trehalose by ThT-based fluorometric method (reference value: 52 +/- 7 a.u.)
[11] = target: Amyloid-beta precursor protein (Homo sapiens) (UniProt P05067); assay: Inhibition of amyloid beta (1 to 42) (unknown origin) self induced aggregation assessed as time at which amplitude of ThT emission is 50% of difference between final and initial fluorescence emission at 40 to 5000 uM […] by ThT-based fluorometric method (reference value: 11 +/- 1 hrs)
[12] = target: Amyloid-beta precursor protein (Homo sapiens) (UniProt P05067); assay: Inhibition of amyloid beta (1 to 42) (unknown origin) self induced aggregation assessed as reduction in protofibrils formation at 500 uM after 30 hrs by atomic force microscopic analysis
[13] = Drug metabolism assessed as human recombinant carnosinase mediated compound hydrolysis at 0.5 mM after 1.5 hrs by RP-HPLC analysis; format: ADME; conditions: 500 µM
[14] = Antiglycating activity in phosphate buffer assessed as ACR levels at 10 mM at pH 7.4 after 24 hr by RP-HPLC analysis relative to control; format: physicochemical; conditions: pH 7.4, 24 h, 10000 µM
[15] = Antiglycating activity in phosphate buffer assessed as decrease in ACR levels at 10 mM at pH 7.4 up to 4 hrs by RP-HPLC analysis relative to control; format: physicochemical; design: scale not given: the % may be the effect or the level left; conditions: pH 7.4, 4 h, 10000 µM
[16] = Antiglycating activity in phosphate buffer assessed as decrease in ACR levels at 10 mM at pH 7.4 after 1 hr by RP-HPLC analysis relative to control; format: physicochemical; design: scale not given: the % may be the effect or the level left; conditions: pH 7.4, 1 h, 10000 µM
[17] = Antiglycating activity in phosphate buffer assessed as ACR-compound adduct formation at 10 mM at pH 7.4 after 1 to 24 hrs by HPLC-MS/MS spectra analysis; format: physicochemical; conditions: pH 7.4, 10000 µM
[18] = target: Amyloid-beta precursor protein (Homo sapiens) (UniProt P05067); assay: Inhibition of amyloid beta (1 to 42) (unknown origin) self induced aggregation assessed as average assembled nanostructure height at 500 uM after 30 hrs by atomic force microscopic analysis
[19] = Stability of the compound assessed as human recombinant carnosinase mediated compound hydrolysis at 0.5 mM after 2.5 hrs by RP-HPLC analysis; format: ADME; conditions: 500 µM
[20] = Antiglycating activity in phosphate buffer assessed as decrease in ACR levels at 10 mM at pH 7.4 by RP-HPLC analysis; format: physicochemical; conditions: pH 7.4, 10000 µM, TDE = time-dependent effect

| Structure (SMILES) | inhibition [1] | Tlag [2] [h] | Activity [3] [a.u.] | K [4] | Activity [5] | inhibition [6] | T1/2 [7] [h] | Tlag [8] [h] | K [9] | Activity [10] [a.u.] | T1/2 [11] [h] | inhibition [12] | Drug metabolism [13] | Activity [14] [%] | Activity [15] [%] | Activity [16] [%] | Activity [17] | Activity [18] [nm] | Stability [19] | Activity [20] |
| --- | --- | --- | --- | --- | --- | --- | --- | --- | --- | --- | --- | --- | --- | --- | --- | --- | --- | --- | --- | --- |
| NCCC(=O)N[C@@H](Cc1c[nH]cn1)C(=O)O | Active | 4.3 | 33 | 2.7 | Dose-dependent effect | inactive | 5.8 | 3.9 | 1.9 | 31 | 7.8 | inactive | – | – | – | – | – | – | – | – |
| NCCC(=O)N[C@@H](Cc1cnc[nH]1)C(=O)O [CARNOSINE] | – | – | – | – | – | – | – | – | – | – | – | – | Metabolite_Detected | 0 | 0 | 40 | Active | – | – | – |
| O=C(CCNC[C@H]1O[C@H](O[C@H]2O[C@H](CO)[C@@H](O)[C@H](O)[C@H]2O)[C@H](O)[C@@H](O)[C@@H]1O)N[C@@H](Cc1c[nH]cn1)C(=O)O | Active | – | 6 | – | Dose-dependent effect | Active | – | 2.7 | 0.7 | – | 4.1 | Active | – | 1 | – | – | Active | 2.1 | Stable | Tde |
| OC[C@H]1O[C@H](O[C@H]2O[C@H](CO)[C@@H](O)[C@H](O)[C@H]2O)[C@H](O)[C@@H](O)[C@@H]1O | – | – | 37 | – | Dose-dependent effect | – | – | 4.7 | 1.7 | – | 8.3 | – | – | – | – | – | – | – | – | – |
